Consider 25 compounds from the NIST ThermoML archive (doi:10.1016/j.jct.2011.02.012).

± gives the expanded uncertainty stated by the source.

The nature of the series: activity coefficient (dimensionless); of the first substance listed, at infinite dilution; xn = mol fraction of the nth substance listed. The note with it: Liquid, Chromatography, x1 = 0.

Consider `CCCC(C)=O` [pentan-2-one] + CCn1cc[n+](C)c1.N#C[B-](C#N)(C#N)C#N, for which the activity coefficient is, setting by setting: (308.15 K) 0.816 ± 0.053; (318.15 K) 0.833 ± 0.054; (328.15 K) 0.847 ± 0.054; (338.15 K) 0.861 ± 0.055; (348.15 K) 0.879 ± 0.056; (358.15 K) 0.796 ± 0.052.

For `C#CCCCC` [1-hexyne] + CCn1cc[n+](C)c1.N#C[B-](C#N)(C#N)C#N, the activity coefficient reads like this: (298.15 K) 3.77 ± 0.26; (308.15 K) 3.76 ± 0.26; (318.15 K) 3.76 ± 0.26; (328.15 K) 3.75 ± 0.26; (338.15 K) 3.74 ± 0.25; (348.15 K) 3.74 ± 0.25. The activity coefficient (358.15 K) came out at 3.73 ± 0.25.

Take `Cc1ccc(C)cc1` [1,4-dimethylbenzene] + CCn1cc[n+](C)c1.N#C[B-](C#N)(C#N)C#N: the activity coefficient by setting is: (318.15 K) 2.45 ± 0.17; (328.15 K) 2.48 ± 0.17; (338.15 K) 2.5 ± 0.17; (348.15 K) 2.52 ± 0.17; (358.15 K) 2.54 ± 0.17.

Regarding `CCCO` [propan-1-ol] + CCn1cc[n+](C)c1.N#C[B-](C#N)(C#N)C#N, the activity coefficient by setting is: (298.15 K) 2.01 ± 0.14; (308.15 K) 1.81 ± 0.12; (318.15 K) 1.65 ± 0.11; (328.15 K) 1.5 ± 0.1; (338.15 K) 1.39 ± 0.09; (348.15 K) 1.3 ± 0.08. Further, the activity coefficient (358.15 K) was 1.21 ± 0.08.

As to `CCCCCCCCC` [nonane] + CCn1cc[n+](C)c1.N#C[B-](C#N)(C#N)C#N, the activity coefficient runs as follows: (298.15 K) 131 ± 9; (308.15 K) 114 ± 8; (318.15 K) 102 ± 7; (328.15 K) 90.2 ± 6.2; (338.15 K) 81.1 ± 5.6; (348.15 K) 73.2 ± 5. The activity coefficient (358.15 K) came to 66.3 ± 4.5.

As to `CCCCCCCC` [octane] + CCn1cc[n+](C)c1.N#C[B-](C#N)(C#N)C#N, the activity coefficient reads like this: (298.15 K) 83.2 ± 5.7; (308.15 K) 73.6 ± 5; (318.15 K) 67.4 ± 4.6; (328.15 K) 60.2 ± 4.1; (338.15 K) 54.8 ± 3.8; (348.15 K) 50.2 ± 3.4. Also, under “358.15 K”, the activity coefficient was 46 ± 3.1.

Consider `C=CCCCC` [hex-1-ene] + CCn1cc[n+](C)c1.N#C[B-](C#N)(C#N)C#N, for which the activity coefficient (298.15 K) turned out to be 14.4 ± 1; the activity coefficient (308.15 K) amounted to 13.5 ± 0.9; the activity coefficient (318.15 K) was determined as 12.9 ± 0.9; the activity coefficient (328.15 K) was 12.2 ± 0.8; the activity coefficient (338.15 K) was found to be 11.6 ± 0.8; the activity coefficient (348.15 K) stood at 11.2 ± 0.8. Besides, the activity coefficient (358.15 K) came out at 10.6 ± 0.7.

For `C#CCCCCCC` [1-octyne] + CCn1cc[n+](C)c1.N#C[B-](C#N)(C#N)C#N, the activity coefficient is, setting by setting: (298.15 K) 8.66 ± 0.59; (308.15 K) 8.48 ± 0.58; (318.15 K) 8.31 ± 0.57; (328.15 K) 8.15 ± 0.56; (338.15 K) 7.99 ± 0.54; (348.15 K) 7.86 ± 0.54. Moreover, for the setting “358.15 K”, the activity coefficient worked out at 7.73 ± 0.53.

For `CCCOCCC` [dipropyl ether] + CCn1cc[n+](C)c1.N#C[B-](C#N)(C#N)C#N, the activity coefficient is 8.54 ± 0.58 (298.15 K); 8.32 ± 0.57 (308.15 K); 8.07 ± 0.55 (318.15 K); 7.79 ± 0.53 (328.15 K); 7.6 ± 0.5 (338.15 K); 7.43 ± 0.51 (348.15 K). In addition, the activity coefficient (358.15 K) is 7.24 ± 0.49.

For the compound `CCC(C)(C)OC` [2-methoxy-2-methylbutane] + CCn1cc[n+](C)c1.N#C[B-](C#N)(C#N)C#N, the activity coefficient came out at 4.15 ± 0.28 (298.15 K); 4.19 ± 0.29 (308.15 K); 4.22 ± 0.29 (318.15 K); 4.25 ± 0.29 (328.15 K); 4.28 ± 0.29 (338.15 K); 4.3 ± 0.29 (348.15 K). Further, the activity coefficient (358.15 K) was 4.32 ± 0.29.

In the case of `CCCC(=O)CC` [3-hexanone] + CCn1cc[n+](C)c1.N#C[B-](C#N)(C#N)C#N, the activity coefficient worked out at 1.2 ± 0.08 (308.15 K); 1.22 ± 0.08 (318.15 K); 1.24 ± 0.08 (328.15 K); 1.25 ± 0.08 (338.15 K); 1.28 ± 0.08 (348.15 K); 1.17 ± 0.07 (358.15 K).

`CCC(=O)CC` [pentan-3-one] + CCn1cc[n+](C)c1.N#C[B-](C#N)(C#N)C#N: the activity coefficient runs as follows: (308.15 K) 0.798 ± 0.052; (318.15 K) 0.821 ± 0.053; (328.15 K) 0.842 ± 0.054; (338.15 K) 0.861 ± 0.055; (348.15 K) 0.883 ± 0.056; (358.15 K) 0.771 ± 0.05.

Turning to `C=CCCC` [1-pentene] + CCn1cc[n+](C)c1.N#C[B-](C#N)(C#N)C#N, the activity coefficient reads like this: (298.15 K) 9.24 ± 0.63; (308.15 K) 8.83 ± 0.6; (318.15 K) 8.56 ± 0.58; (328.15 K) 8.24 ± 0.56; (338.15 K) 7.97 ± 0.54; (348.15 K) 7.71 ± 0.53. The activity coefficient (358.15 K) was 7.52 ± 0.51.

As to `CC1CCCCC1` [methylcyclohexane] + CCn1cc[n+](C)c1.N#C[B-](C#N)(C#N)C#N, the activity coefficient is, setting by setting: (298.15 K) 24.9 ± 1.7; (308.15 K) 22.7 ± 1.6; (318.15 K) 21.1 ± 1.4; (328.15 K) 19.4 ± 1.3; (338.15 K) 18 ± 1; (348.15 K) 16.9 ± 1.2. Also, where the note is “358.15 K”, the activity coefficient came to 15.9 ± 1.1.

With `CCCCCCC` [heptane] + CCn1cc[n+](C)c1.N#C[B-](C#N)(C#N)C#N, the activity coefficient runs as follows: (298.15 K) 53.4 ± 3.7; (308.15 K) 47.9 ± 3.3; (318.15 K) 44.1 ± 3; (328.15 K) 39.9 ± 2.7; (338.15 K) 36.7 ± 2.5; (348.15 K) 34.3 ± 2.3. Moreover, the activity coefficient (358.15 K) worked out at 31.7 ± 2.2.

Regarding `Cc1cccc(C)c1` [1,3-dimethylbenzene] + CCn1cc[n+](C)c1.N#C[B-](C#N)(C#N)C#N, the activity coefficient is, setting by setting: (308.15 K) 2.56 ± 0.17; (318.15 K) 2.58 ± 0.18; (328.15 K) 2.6 ± 0.18; (338.15 K) 2.61 ± 0.18; (348.15 K) 2.63 ± 0.18; (358.15 K) 2.64 ± 0.18.

Consider `C1CCCC1` [cyclopentane] + CCn1cc[n+](C)c1.N#C[B-](C#N)(C#N)C#N, for which the activity coefficient reads like this: (298.15 K) 10.7 ± 0.7; (308.15 K) 9.9 ± 0.7; (318.15 K) 9.5 ± 0.7; (328.15 K) 8.8 ± 0.6; (338.15 K) 8.4 ± 0.6; (348.15 K) 8 ± 0.5. Besides, the activity coefficient (358.15 K) was 7.6 ± 0.5.

For the compound `CCCCCCCCCC` [decane] + CCn1cc[n+](C)c1.N#C[B-](C#N)(C#N)C#N, the activity coefficient by setting is: (298.15 K) 203 ± 14; (308.15 K) 177 ± 12; (318.15 K) 156 ± 11; (328.15 K) 137 ± 9; (338.15 K) 122 ± 8; (348.15 K) 108 ± 7. The activity coefficient (358.15 K) is 96.7 ± 6.6.

In the case of `Cc1ccccc1` [toluene] + CCn1cc[n+](C)c1.N#C[B-](C#N)(C#N)C#N, the activity coefficient reads like this: (298.15 K) 1.65 ± 0.11; (308.15 K) 1.67 ± 0.11; (318.15 K) 1.69 ± 0.11; (328.15 K) 1.71 ± 0.11; (338.15 K) 1.73 ± 0.12; (348.15 K) 1.75 ± 0.12. Under “358.15 K”, the activity coefficient is 1.76 ± 0.12.

For the compound `CCCCC` [pentane] + CCn1cc[n+](C)c1.N#C[B-](C#N)(C#N)C#N, the activity coefficient turned out to be 22 ± 1.5 (298.15 K); 20.1 ± 1.4 (308.15 K); 19.1 ± 1.3 (318.15 K); 17.6 ± 1.2 (328.15 K); 16.6 ± 1.1 (338.15 K); 15.8 ± 1.1 (348.15 K). Also, the activity coefficient (358.15 K) came out at 14.9 ± 1.

Turning to `CCCCC(C)=O` [2-hexanone] + CCn1cc[n+](C)c1.N#C[B-](C#N)(C#N)C#N, the activity coefficient by setting is: (308.15 K) 1.11 ± 0.07; (318.15 K) 1.12 ± 0.07; (328.15 K) 1.14 ± 0.07; (338.15 K) 1.16 ± 0.07; (348.15 K) 1.17 ± 0.07; (358.15 K) 1.09 ± 0.07.

Regarding `c1ccccc1` [benzene] + CCn1cc[n+](C)c1.N#C[B-](C#N)(C#N)C#N, the activity coefficient is 1.13 ± 0.07 (298.15 K); 1.15 ± 0.07 (308.15 K); 1.17 ± 0.07 (318.15 K); 1.18 ± 0.08 (328.15 K); 1.19 ± 0.08 (338.15 K); 1.2 ± 0.08 (348.15 K). Besides, for the setting “358.15 K”, the activity coefficient came to 1.21 ± 0.08.

For the compound `CO` [methanol] + CCn1cc[n+](C)c1.N#C[B-](C#N)(C#N)C#N, the activity coefficient was found to be 1.1 ± 0.07 (298.15 K); 1.02 ± 0.06 (308.15 K); 0.948 ± 0.06 (318.15 K); 0.886 ± 0.056 (328.15 K); 0.835 ± 0.054 (338.15 K); 0.788 ± 0.051 (348.15 K). For the same compound, where the note is “358.15 K”, the activity coefficient turned out to be 0.748 ± 0.049.

Consider `CCOCC` [diethyl ether] + CCn1cc[n+](C)c1.N#C[B-](C#N)(C#N)C#N, for which the activity coefficient came to 2.71 ± 0.18 (298.15 K); 2.72 ± 0.19 (308.15 K); 2.73 ± 0.19 (318.15 K); 2.74 ± 0.19 (328.15 K); 2.75 ± 0.19 (338.15 K); 2.76 ± 0.19 (348.15 K). Moreover, under “358.15 K”, the activity coefficient was determined as 2.77 ± 0.19.

Regarding `C1CCCCCCC1` [cyclooctane] + CCn1cc[n+](C)c1.N#C[B-](C#N)(C#N)C#N, the activity coefficient (298.15 K) amounted to 29.7 ± 2; the activity coefficient (308.15 K) was determined as 26.6 ± 1.8; the activity coefficient (318.15 K) is 24.7 ± 1.7; the activity coefficient (328.15 K) was determined as 22.5 ± 1.5; the activity coefficient (338.15 K) is 20.8 ± 1.4; the activity coefficient (348.15 K) was 19.2 ± 1.3. For the same compound, the activity coefficient (358.15 K) stood at 17.9 ± 1.2.
